Patent publication US6355799B1, “Substituted benzene compounds, process for their preparation, and herbicidal and defoliant compositions containing them” (ISK Americas Incorporated, priority 1997, dated 2002)
Where two headings read alike, the source gives them in different places.

Key:
Assay type in all cases: in vivo
[1] = test system: sicklepod (Cassia obtusifolia, CASOB); assay: Pre-emerge test, greenhouse herbicide activity screening; conditions: for Pre-emerge Herbicidal Activity CASOB (phytotoxicity rating, scale 0-100): rated 14 days after application, 0 = no damage, 100 = complete death; for Pre-emerge herbicidal activity, phytotoxicity rating CASOB: rating scale 0-100, 14 days after application
How it was run: (§1)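 Compounds in acetone were track-sprayed at 187 l/ha, 15–1000 g ai/ha, onto sandy loam pots. Pre-emerge seeds were sown one day before spraying, with surface watering afterwards. Post-emerge plants were at the 2–3 leaf stage and sprayed with 0.25% v/v non-ionic surfactant. Injury was rated 0–100 at 14 days.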

[2] = test system: ivyleaf morningglory (Ipomoea hederacea, IPOHE); assay: as above; conditions: for Pre-emerge Herbicidal Activity IPOHE (phytotoxicity rating, scale 0-100): rated 14 days after application, 0 = no damage, 100 = complete death; for Pre-emerge herbicidal activity, phytotoxicity rating IPOHE: rating scale 0-100, 14 days after application
How it was run: as §1

[3] = test system: barnyardgrass (Echinochloa crus-galli, ECHCG); assay: as above; conditions: for Pre-emerge Herbicidal Activity ECHCG (phytotoxicity rating, scale 0-100): rated 14 days after application, 0 = no damage, 100 = complete death; for Pre-emerge herbicidal activity, phytotoxicity rating ECHCG: rating scale 0-100, 14 days after application
How it was run: as §1

[4] = test system: large crabgrass (Digitaria sanguinalis, DIGSA); assay: as above; conditions: for Pre-emerge Herbicidal Activity DIGSA (phytotoxicity rating, scale 0-100): rated 14 days after application, 0 = no damage, 100 = complete death; for Pre-emerge herbicidal activity, phytotoxicity rating DIGSA: rating scale 0-100, 14 days after application
How it was run: as §1

[5] = test system: sicklepod (Cassia obtusifolia, CASOB); assay: Post-emerge test, greenhouse herbicide activity screening; conditions: Senna obtusifolia, post-emergence, 336 h, read-out: Post-emerge Herbicidal Activity CASOB; for pest or weed control at 63 g/ha: 63 g ai/ha; for pest or weed control at 250 g/ha: 250 g ai/ha
How it was run: (§2)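 Fourteen days after spraying, crop and weed injury was graded visually from 0, no effect, to 100, every plant dead. Test substances were dissolved in acetone and applied at 15–1000 g ai/ha with a flat-fan nozzle. Application was either pre-emergence, one day after sowing, or post-emergence at the 2–3 leaf stage.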

[6] = test system: ivyleaf morningglory (Ipomoea hederacea, IPOHE); assay: as above; conditions: Ipomoea, post-emergence, 336 h, read-out: Post-emerge Herbicidal Activity IPOHE; for pest or weed control at 63 g/ha: 63 g ai/ha; for pest or weed control at 250 g/ha: 250 g ai/ha
How it was run: as §2

[7] = test system: barnyardgrass (Echinochloa crus-galli, ECHCG); assay: as above; conditions: Echinochloa crus-galli, post-emergence, 336 h, read-out: Post-emerge Herbicidal Activity ECHCG; for pest or weed control at 63 g/ha: 63 g ai/ha; for pest or weed control at 250 g/ha: 250 g ai/ha
How it was run: as §2

[8] = test system: redroot pigweed (Amaranthus retroflexus, AMARE); assay: as above; conditions: Amaranthus retroflexus, post-emergence, 336 h, read-out: Post-emerge Herbicidal Activity AMARE; for pest or weed control at 63 g/ha: 63 g ai/ha; for pest or weed control at 250 g/ha: 250 g ai/ha
How it was run: as §2

[9] = test system: green foxtail (Setaria viridis, SETVI); assay: as above; conditions: Setaria viridis, post-emergence, 336 h, read-out: Post-emerge Herbicidal Activity SETVI; for pest or weed control at 63 g/ha: 63 g ai/ha; for pest or weed control at 250 g/ha: 250 g ai/ha
How it was run: as §2

[10] = test system: johnsongrass (Sorghum halepense, SORHA); assay: as above; conditions: Sorghum halepense, post-emergence, 336 h, phytotoxicity rating 0-100 (0 no damage, 100 complete death), 14 days after application, read-out: Post-emerge Herbicidal Activity SORHA
How it was run: as §2

[11] = test system: large crabgrass (Digitaria sanguinalis, DIGSA); assay: as above; conditions: Digitaria sanguinalis, post-emergence, 336 h, read-out: Post-emerge Herbicidal Activity DIGSA; for pest or weed control at 63 g/ha: 63 g ai/ha; for pest or weed control at 250 g/ha: 250 g ai/ha
How it was run: as §2

[12] = test system: velvetleaf (Abutilon theophrasti, ABUTH); assay: as above; conditions: Abutilon theophrasti, post-emergence, 336 h, read-out: Post-emerge Herbicidal Activity ABUTH; for pest or weed control at 63 g/ha: 63 g ai/ha; for pest or weed control at 250 g/ha: 250 g ai/ha
How it was run: as §2

[13] = test system: lambsquarters (Chenopodium album, CHEAL); assay: as above; conditions: Chenopodium album, post-emergence, 336 h, post-emerge, phytotoxicity rating 0-100 at 14 days after application, read-out: Post-emerge Herbicidal Activity CHEAL
How it was run: as §2

[14] = phytotoxicity rating 0-100 (0 no damage, 100 complete death), 14 days after application
[15] = post-emerge, phytotoxicity rating 0-100 at 14 days after application

For `Cn1c(C(F)(F)F)cc(=O)n(-c2c(F)cc(Cl)c(OC(F)F)c2N)c1=O` [Compound 1-38, 3-(2-amino-4-chloro-3-difluoromethoxy-6-fluorophenyl)-1-methyl-6-trifluoromethyl-2,4(1H, 3H)-pyrimidinedione], the “Pre-emerge Herbicidal Activity CASOB (phytotoxicity rating, scale 0-100)” value ([1]; 63 g ai/ha) was 100, the “Pre-emerge Herbicidal Activity CASOB (phytotoxicity rating, scale 0-100)” value ([1]; 250 g ai/ha) was 100 and the “Pre-emerge Herbicidal Activity IPOHE (phytotoxicity rating, scale 0-100)” value ([2]; 63 g ai/ha) was 100. The “Pre-emerge Herbicidal Activity IPOHE (phytotoxicity rating, scale 0-100)” value ([2]; 250 g ai/ha) was 100, the “Pre-emerge Herbicidal Activity ECHCG (phytotoxicity rating, scale 0-100)” value ([3]; 63 g ai/ha) was 95 and the “Pre-emerge Herbicidal Activity ECHCG (phytotoxicity rating, scale 0-100)” value ([3]; 250 g ai/ha) was 100. The “Pre-emerge Herbicidal Activity DIGSA (phytotoxicity rating, scale 0-100)” value ([4]; 63 g ai/ha) was 100, the “Pre-emerge Herbicidal Activity DIGSA (phytotoxicity rating, scale 0-100)” value ([4]; 250 g ai/ha) was 100 and the pest or weed control at 63 g/ha [5, 14] was 50%. It also gave a pest or weed control at 250 g/ha [5, 14] of 90%, a pest or weed control at 63 g/ha [6, 14] of 80% and a pest or weed control at 250 g/ha [6, 14] of 100%. For the same compound, the pest or weed control at 63 g/ha [7, 14] was 0%, the pest or weed control at 250 g/ha [7, 14] was 80% and the pest or weed control at 63 g/ha [8, 14] was 80%. The pest or weed control at 250 g/ha [8, 14] was 100%, the pest or weed control at 63 g/ha [9, 14] was 10% and the pest or weed control at 250 g/ha [9, 14] was 80%. The pest or weed control at 63 g/ha ([10]; 63 g ai/ha) was 0%, the pest or weed control at 250 g/ha ([10]; 250 g ai/ha) was 80% and the pest or weed control at 63 g/ha [11, 14] was 10%. The pest or weed control at 250 g/ha [11, 14] was 80%, the pest or weed control at 63 g/ha [12, 14] was 100% and the pest or weed control at 250 g/ha [12, 14] was 100%.

`COc1c(Cl)cc(F)c(N2C(=O)c3ccccc3C2=O)c1NC(=O)c1ccc2ccccc2c1` [Compound 13-3, N-[4-chloro-6-fluoro-3-methoxy-2-(2-naphthoyl)aminophenyl]phthalimide] was tested, and the “Pre-emerge herbicidal activity, phytotoxicity rating CASOB” value ([1]; 63 g ai/ha) was 0, the “Pre-emerge herbicidal activity, phytotoxicity rating CASOB” value ([1]; 250 g ai/ha) was 30 and the “Pre-emerge herbicidal activity, phytotoxicity rating IPOHE” value ([2]; 63 g ai/ha) was 0. For the same compound, the “Pre-emerge herbicidal activity, phytotoxicity rating IPOHE” value ([2]; 250 g ai/ha) was 0, the “Pre-emerge herbicidal activity, phytotoxicity rating ECHCG” value ([3]; 63 g ai/ha) was 0 and the “Pre-emerge herbicidal activity, phytotoxicity rating ECHCG” value ([3]; 250 g ai/ha) was 10. The “Pre-emerge herbicidal activity, phytotoxicity rating DIGSA” value ([4]; 63 g ai/ha) was 0, the “Pre-emerge herbicidal activity, phytotoxicity rating DIGSA” value ([4]; 250 g ai/ha) was 30 and the pest or weed control at 63 g/ha [5, 15] was 90%. The pest or weed control at 250 g/ha [5, 15] was 100%, the pest or weed control at 63 g/ha [6, 15] was 75% and the pest or weed control at 250 g/ha [6, 15] was 70%. The pest or weed control at 63 g/ha [7, 15] was 0%, the pest or weed control at 250 g/ha [7, 15] was 20% and the pest or weed control at 63 g/ha [8, 15] was 90%. It also gave a pest or weed control at 250 g/ha [8, 15] of 90%, a pest or weed control at 63 g/ha [9, 15] of 10% and a pest or weed control at 250 g/ha [9, 15] of 30%. For the same compound, the pest or weed control at 63 g/ha [11, 15] was 0%, the pest or weed control at 250 g/ha [11, 15] was 10% and the pest or weed control at 63 g/ha ([13]; 63 g ai/ha) was 100%. For the same compound, the pest or weed control at 250 g/ha ([13]; 250 g ai/ha) was 100%, the pest or weed control at 63 g/ha [12, 15] was 100% and the pest or weed control at 250 g/ha [12, 15] was 90%.
